Experimental data: article PMC11997881, “Comprehensive Characterization of Bruton’s Tyrosine Kinase Inhibitor Specificity, Potency, and Biological Effects: Insights into Covalent and Noncovalent Mechanistic Signatures” (ACS Pharmacology & Translational Science, 2025)
Where two headings read alike, the source gives them in different places.

Legend:
BTK C481S [1] = target: T1, BTK C481S (Homo sapiens, UniProt Q06187, C481S); assay: KdELECT competition binding, mutant BTK C481S
T1 construct: made in house; host or cells: transiently transfected HEK293 cells (unpurified extract)
T1 sequence (Q06187 whole entry C481S): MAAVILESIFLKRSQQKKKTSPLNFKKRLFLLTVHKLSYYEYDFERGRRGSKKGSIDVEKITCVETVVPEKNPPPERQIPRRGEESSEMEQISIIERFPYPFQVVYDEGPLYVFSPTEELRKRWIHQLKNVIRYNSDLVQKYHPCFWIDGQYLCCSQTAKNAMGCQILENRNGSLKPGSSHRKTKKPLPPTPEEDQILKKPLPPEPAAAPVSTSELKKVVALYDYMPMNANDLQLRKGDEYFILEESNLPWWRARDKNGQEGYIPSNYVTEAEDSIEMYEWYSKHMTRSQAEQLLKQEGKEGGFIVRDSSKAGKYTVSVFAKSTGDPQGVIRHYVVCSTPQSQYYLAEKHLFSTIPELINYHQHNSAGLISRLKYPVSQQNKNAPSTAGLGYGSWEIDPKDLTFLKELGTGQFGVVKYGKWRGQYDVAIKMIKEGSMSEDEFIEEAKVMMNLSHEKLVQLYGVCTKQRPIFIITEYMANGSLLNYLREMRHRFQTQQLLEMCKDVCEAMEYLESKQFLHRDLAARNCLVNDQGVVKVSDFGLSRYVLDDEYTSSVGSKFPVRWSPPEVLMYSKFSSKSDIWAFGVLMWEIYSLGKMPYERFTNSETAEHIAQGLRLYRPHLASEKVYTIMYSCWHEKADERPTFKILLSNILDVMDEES
Description: Protein extracts were harvested in M-PER extraction buffer (Pierce Biotechnology, Rockford, IL) supplemented with 150 mM NaCl, 10 mM Dithiothreitol (DTT), Protease Inhibitor Cocktail Complete (Roche Diagnostics GmbH, Mannheim, Germany), and Phosphatase Inhibitor Cocktail Set II (Merck KGaA, Darmstadt, Germany) following the manufacturer’s guidelines. The fusion protein was labeled with a DNA tag containing the NFκB binding site fused to an amplicon for qPCR readout, which was added directly to the expression extract.
Kds were calculated using a standard dose–response curve fitting of the data using the Hill equation: Response = Background + (Signal – Background)/(1 + (Kd ^Hill Slope/Dose^Hill Slope). The Hill Slope was set to −1. A nonlinear least-square fit using the Levenberg–Marquardt algorithm was employed for curve fitting.

BTK C481S in TMD8 cells = settings: IC50 measured in TMD8 cells (not in vitro); read-out: average published IC50 for BTK C481S; cited from earlier work
BTK C481S [2] = settings: literature values; read-out: average published IC50 for BTK C481S; cited from earlier work
BTK C481S [3] = settings: average of literature values; read-out: average published Kd for BTK C481S; cited from earlier work
[4] = ATP-independent in vitro binding, 25 °C, read-out: Kd for BTK C481S
[5] = N = 1, technical duplicate, read-out: average in-house Kd for BTK C481S
[6] = category by Kd for BTK C481S, read-out: potency for BTK C481S

Row | Kd (BTK C481S [1]; [4]) | Kd (BTK C481S [1]; [5]) | Kd (BTK C481S [1]; [6]) | fold difference between in-house and published Kd (BTK C481S [1]; BTK C481S) | SMILES | IC50 (BTK C481S in TMD8 cells) | IC50 (BTK C481S [2]) | Kd (BTK C481S [3]) | Kd for BTK C481S (BTK C481S [1]; ATP-independent in vitro binding, 25 °C)
1 | 460 nM | 460 nM | 100 to 1000 nM | – | C=CC(=O)N1CCC[C@@H](c2ccc(C(N)=O)c3[nH]ccc23)C1 [Elsubrutinib] | – | – | – | –
2 | – | – | – | – | C[C@H]1CN(C2COC2)CCN1c1ccc(Nc2cc(-c3ccnc(N4CCn5c(cc6c5CC(C)(C)C6)C4=O)c3CO)cn(C)c2=O)nc1 [Fenebrutinib] | 7.8 nM | – | – | –
3 | – | – | – | – | O=C(c1ccc(Oc2ccccc2)cc1Cl)c1c[nH]c2ncnc(N[C@@H]3CC[C@@H](CO)OC3)c12 [Nemtabrutinib] | – | 0.39 nM | – | –
4 | 0.89 nM | 0.89 nM | < 1 nM | 2.9 fold | COc1ccc(F)cc1C(=O)NCc1ccc(-c2nn([C@@H](C)C(F)(F)F)c(N)c2C(N)=O)cc1 [Pirtobrutinib] | 4 nM | – | 2.6 nM | –
5 | > 1000 nM | > 1000 nM | > 1000 nM | – | C=CC(=O)Nc1cccc(Oc2nc(Nc3ccc(N4CCN(C)CC4)cc3)nc3ccoc23)c1 [Poseltinib] | – | – | – | did not demonstrate any binding at the concentrations tested
